# Experimental data from PubChem BioAssay (NCI).
#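 In this assay, cells in 96-well plates receive the compound at five concentrations for 48 hours. Endpoints are linearly interpolated between the surrounding concentrations. At the TGI there is no net growth.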
# How the values were obtained:
# Test in all cases: inhibition of tumour cell growth, NCI panel, 48 h
# [1] = tested on: SW-620 colon
# [2] = tested on: SK-OV-3 ovarian
# [3] = tested on: SF-295 CNS
# [4] = tested on: HOP-62 NSCLC
# [5] = tested on: M14 melanoma
# [6] = tested on: HCT-116 colon
# [7] = tested on: KM12 colon
# [8] = tested on: SNB-75 CNS
# [9] = tested on: HT29 colon
# [10] = tested on: HCC-2998 colon
# [11] = tested on: SN12C renal
# [12] = tested on: NCI-H522 lung
# [13] = tested on: U251 CNS
# [14] = tested on: OVCAR-5 ovarian
# [15] = tested on: OVCAR-3 ovarian
# [16] = tested on: UO-31 renal
# [17] = tested on: DLD-1 colon
# [18] = tested on: MALME-3M melanoma
# [19] = tested on: KM20L2 colon
# [20] = tested on: SNB-78 CNS
# [21] = tested on: LOX IMVI melanoma
# [22] = tested on: HOP-92 NSCLC
# [23] = tested on: SK-MEL-5 melanoma
# [24] = tested on: XF 498 CNS
# [25] = tested on: A498 renal
# [26] = tested on: ACHN renal
# [27] = tested on: SNB-19 CNS
# [28] = tested on: NCI-H460 lung
# [29] = tested on: M19-MEL melanoma
# [30] = tested on: SF-268 CNS
# [31] = tested on: TK-10 renal
# [32] = tested on: UACC-62 melanoma
# [33] = tested on: DMS 273 small cell lung
# [34] = tested on: SK-MEL-2 melanoma
# [35] = tested on: OVCAR-8 ovarian
# [36] = tested on: K-562 leukemia
# [37] = tested on: SF-539 CNS
# [38] = tested on: IGROV1 ovarian
# [39] = tested on: HCT-15 colon
# [40] = tested on: NCI-H23 lung
# [41] = tested on: MOLT-4 leukemia
# [42] = tested on: LXFL 529 NSCLC
# [43] = tested on: OVCAR-4 ovarian
# [44] = tested on: RXF 393 renal
# [45] = tested on: 786-0 renal
# [46] = tested on: SK-MEL-28 melanoma
# [47] = tested on: EKVX NSCLC
# [48] = tested on: DMS 114 small cell lung
# [49] = tested on: NCI-H226 lung
# [50] = tested on: CCRF-CEM leukemia
# [51] = tested on: HOP-18 NSCLC
# [52] = tested on: A549 NSCLC
# [53] = tested on: COLO 205 colon
# [54] = tested on: UACC-257 melanoma
# [55] = tested on: HL-60(TB) leukemia
# [56] = tested on: RPMI-8226 leukemia
# [57] = tested on: SR leukemia
# [58] = tested on: CAKI-1 renal
smiles,measurement,setting,value
COc1ccc2c(c1)[n+](=O)c(C(=O)C/C(=N/NC(=O)c1ccccc1O)C(=O)Nc1ccc(Cl)c(C(F)(F)F)c1)c(C)n2[O-],TGI,[1],> 100 µM
same,TGI,[2],> 100 µM
same,TGI,[3],> 100 µM
same,TGI,[4],> 100 µM
same,TGI,[5],> 100 µM
same,TGI,[6],> 100 µM
same,TGI,[7],> 100 µM
same,TGI,[8],> 100 µM
same,TGI,[9],> 100 µM
same,TGI,[10],> 100 µM
same,TGI,[11],> 100 µM
same,TGI,[12],> 100 µM
same,TGI,[13],> 100 µM
same,TGI,[14],> 100 µM
same,TGI,[15],87.1 µM
same,TGI,[16],50.5 µM
same,TGI,[17],> 100 µM
same,TGI,[18],> 100 µM
same,TGI,[19],> 100 µM
same,TGI,[20],> 100 µM
same,TGI,[21],> 100 µM
same,TGI,[22],> 100 µM
same,TGI,[23],> 100 µM
same,TGI,[24],> 100 µM
same,TGI,[25],> 100 µM
same,TGI,[26],> 100 µM
same,TGI,[27],> 100 µM
same,TGI,[28],> 100 µM
same,TGI,[29],> 100 µM
same,TGI,[30],> 100 µM
same,TGI,[31],> 100 µM
same,TGI,[32],> 100 µM
same,TGI,[33],> 100 µM
same,TGI,[34],> 100 µM
same,TGI,[35],> 100 µM
same,TGI,[36],> 100 µM
same,TGI,[37],> 100 µM
same,TGI,[38],> 100 µM
same,TGI,[39],> 100 µM
same,TGI,[40],> 100 µM
same,TGI,[41],> 100 µM
same,TGI,[42],> 100 µM
same,TGI,[43],> 100 µM
same,TGI,[44],> 100 µM
same,TGI,[45],> 100 µM
same,TGI,[46],> 100 µM
same,TGI,[47],> 100 µM
same,TGI,[48],> 100 µM
same,TGI,[49],> 100 µM
same,TGI,[50],> 100 µM
same,TGI,[51],> 100 µM
same,TGI,[52],> 100 µM
same,TGI,[53],> 100 µM
same,TGI,[54],> 100 µM
O=C1c2c(c(-c3ccccc3)c(-c3ccccc3)c(-c3ccccc3)c2-c2ccccc2)C(=O)N1c1cccc(Br)c1,TGI,[1],> 100 µM
same,TGI,[55],> 100 µM
same,TGI,[2],> 100 µM
same,TGI,[3],> 100 µM
same,TGI,[4],> 100 µM
same,TGI,[5],> 100 µM
same,TGI,[6],> 100 µM
same,TGI,[7],> 100 µM
same,TGI,[8],> 100 µM
same,TGI,[10],> 100 µM
same,TGI,[11],> 100 µM
same,TGI,[56],> 100 µM
same,TGI,[12],> 100 µM
same,TGI,[13],> 100 µM
same,TGI,[14],> 100 µM
same,TGI,[15],> 100 µM
same,TGI,[16],> 100 µM
same,TGI,[17],> 100 µM
same,TGI,[18],> 100 µM
same,TGI,[19],> 100 µM
same,TGI,[20],> 100 µM
same,TGI,[21],> 100 µM
same,TGI,[22],> 100 µM
same,TGI,[23],> 100 µM
same,TGI,[24],> 100 µM
same,TGI,[25],> 100 µM
same,TGI,[27],> 100 µM
same,TGI,[28],> 100 µM
same,TGI,[29],> 100 µM
same,TGI,[30],> 100 µM
same,TGI,[31],> 100 µM
same,TGI,[32],> 100 µM
same,TGI,[33],> 100 µM
same,TGI,[34],> 100 µM
same,TGI,[35],> 100 µM
same,TGI,[57],> 100 µM
same,TGI,[36],> 100 µM
same,TGI,[37],> 100 µM
same,TGI,[38],> 100 µM
same,TGI,[39],> 100 µM
same,TGI,[40],> 100 µM
same,TGI,[41],> 100 µM
same,TGI,[42],> 100 µM
same,TGI,[43],> 100 µM
same,TGI,[44],> 100 µM
same,TGI,[45],> 100 µM
same,TGI,[47],> 100 µM
same,TGI,[48],> 100 µM
same,TGI,[58],> 100 µM
same,TGI,[49],> 100 µM
same,TGI,[50],> 100 µM
same,TGI,[51],> 100 µM
same,TGI,[52],> 100 µM
same,TGI,[53],> 100 µM
same,TGI,[54],> 100 µM
